Experimental data: patent publication US20090061515A1, “Methods of inhibiting or suppressing cellular proliferation” (priority 2007, published 2009)

Test system: Normal Human Dermal Fibroblasts (NHDF)
Assay: Cell growth / cell counts of NHDF during exposure and 96 hours after removal (Example 4)
Assay type: cell-based
Settings: for Cell Counts after exposure and additional 96 hours with compound removed: NHDF re-seeded at 45,000 cells/well; for cell growth during exposure, in words: 24 and 48 hours of exposure
Experimental: Examination of the cell growth effects upon 24 hour and 48 hour exposure of Normal Human Dermal Fibroblasts (NHDF) to 5,6-dihydroxy-hexan-2-one. After the 24 hour or 48 hour exposures, the 5,6-dihydroxy-hexan-2-one was removed and the cells were allowed to grow for an additional 96 hours, then evaluated for growth.
The assay used was a luminescent cell viability assay available under the trade designation CellTiter-Glo from Promega Corporation (Madison, Wis.). This assay determines the number of viable cells present based on the amount of adenosine triphosphate (ATP) present from the cell cytoplasm. The concentration of ATP present is proportional to the measured amount of a luminescent signal. […] The Normal Human Dermal Fibroblasts were available from Clonetics Corporation (San Diego, Calif.).
The 5,6-dihydroxy-hexan-2-one (1.2 grams) was dissolved in 12 ml of phosphate buffered saline and was filter sterilized through a 0.22 micrometer syringe filter prior to use. The 5,6-dihydroxy-hexan-2-one was further diluted to 10^−1, 10^−2, and 10^−3 using serial dilutions for the evaluation.
NHDF were seeded at 45,000 cells/well in four 24 well plates (two testing cell growth and two to re-seed after 24 and 48 hours without 5,6-dihydroxy-hexan-2-one). 24 hours after seeding, 5,6-dihydroxy-hexan-2-one was added to the cell culture plates (2 ml/well) at a concentration of 10^−1, 10^−2, and 10^−3. Assay plates were pulled for cell growth analysis at 24 and 48 hours after addition of the chemical compound. Samples were analyzed on the above-described assay according to a published method. The other two assay plates were washed and re-seeded at 45,000 cells/well at 24 and 48 hour time points without the presence of 5,6-dihydroxy-hexan-2-one. Both plates were grown for an additional 96 hours before a cell count was taken.
To determine proliferation potential post-exposure, cells were reseeded after exposure to 5,6-dihydroxy-hexan-2-one as follows. Additional groups of cells exposed to 5,6-dihydroxy-hexan-2-one for 24 and 48 hours were then washed thoroughly to remove 5,6-dihydroxy-hexan-2-one and harvested from the culture substrate. Those cells were then plated out at the same density as before, but without exposure to 5,6-dihydroxy-hexan-2-one. These two groups were supplied with fresh media and allowed to grow for 96 additional hours. Visual representation of the 10^−1 and 10^−2 groups can be seen in FIG. 15 (10^−1, re-seeded without 5,6-dihydroxy-hexan-2-one for 96 hours) and FIG. 16 (10^−2, re-seeded without 5,6-dihydroxy-hexan-2-one for 96 hours).

## CC(=O)CCC(O)CO (stereo not drawn) [5,6-dihydroxy-hexan-2-one]
0.1 mg/ml, 24 Hour Group
  Cell Counts after exposure and additional 96 hours with compound removed: 200,000 cells
0.1 mg/ml, 48 Hour Group
  Cell Counts after exposure and additional 96 hours with compound removed: 207,500 cells
1 mg/ml, 24 Hour Group
  Cell Counts after exposure and additional 96 hours with compound removed: 172,000 cells
1 mg/ml, 48 Hour Group
  Cell Counts after exposure and additional 96 hours with compound removed: 165,000 cells
10 mg/ml, 24 Hour Group
  Cell Counts after exposure and additional 96 hours with compound removed: 55,000 cells
10 mg/ml, 48 Hour Group
  Cell Counts after exposure and additional 96 hours with compound removed: 65,000 cells
NHDF, 0.1 mg/ml, 24 Hour Group
  Cell Counts after exposure: 180,000 cells
NHDF, 0.1 mg/ml, 48 Hour Group
  Cell Counts after exposure: 305,000 cells
NHDF, 1 mg/ml, 24 Hour Group
  Cell Counts after exposure: 160,000 cells
NHDF, 1 mg/ml, 48 Hour Group
  Cell Counts after exposure: 150,000 cells
NHDF, 10 mg/ml, 24 Hour Group
  Cell Counts after exposure: 65,000 cells
NHDF, 10 mg/ml, 48 Hour Group
  Cell Counts after exposure: 80,000 cells
NHDF, 10^-1 concentration group
  cell growth during exposure, in words: only a minimal amount of growth
NHDF, 10^-1 group, after withdrawal
  cell growth after 96 hours without compound, in words: significant inhibition of cell growth
NHDF, 10^-2 concentration group
  cell growth during exposure, in words: reduced from the control
NHDF, 10^-2 group, after withdrawal
  cell growth after 96 hours without compound, in words: slight reduction of cell growth
NHDF, 10^-3 concentration (lowest tested), after withdrawal
  cell growth after withdrawal, in words: behave similar to controls
NHDF, 10^-3 concentration group
  cell growth during exposure, in words: continued to grow without problems
